Experimental data published in patent publication US20110306671A1, “AMIDE DERIVATIVES OF ETHACRYNIC ACID” (The Regents of the The University of California, priority 2008, published 2011).

Key:
HT29 = assay: Cytotoxicity of EA in tumor cell line HT29; assay type: cell-based; conditions: Homo sapiens, HT-29, mean of at least two experiments
RAMOS = assay: Cytotoxicity of EA in tumor cell line RAMOS; assay type: cell-based; conditions: Homo sapiens, mean of at least two experiments
[1] = test system: Wnt3a-induced transcription; assay: Stable Super8XTOPflash reporter HEK293 cells stimulated with Wnt3a; assay type: cell-based, human
Method: (§1) FIG. 1. Inhibition of Wnt/β-catenin signaling by EA. […] Cells were lysed and luciferase activity was quantified. Total protein levels were determined by Bradford Assay and serve as a control for total cell number. (B) HEK293 cells were co-transfected with TOPflash reporter construct, along with expression plasmids for Wnt1, Wnt3, LRP6, Dvl and β-catenin as indicated. […] (C) HEK293 cells were transfected with FOPflash reporter with or without an expression plasmid for β-catenin. […] (D) HEK293 cells were transfected with NFAT reporter and expression plasmid for NFATc. […] The results are expressed as fold induction of luciferase activity compared to the basal level, and are the means of three experiments±SEM. The Super8XTOPflash construct (kindly provided by Dr. R. Moon) was stably transfected into HEK293 cells, and single cell clones were isolated. […] (2003) and Willert et al. (2008).

FOPflash reporter = FOPflash reporter assay in HEK293 cells; assay type: cell-based, human; conditions: 50 μM EA, 24 hours
Method: as §1, with “For screening of the drug library, HEK293 cells were grown for at least 24 hours in 10 cm plates prior to transfection. At 50% confluence, cells were” for “The Super8XTOPflash construct (kindly provided by Dr. R. Moon) was stably”, “with 5 μg of TOPflash reporter, 1 μg expression vector for Dvl, 1 μg of control plasmid pCMXβgal” for “into HEK293 cells,”, “carrier DNA pcDNA3 plasmid for a total of 10 μg/plate. After transfection for 24 hours, cells” for “single cell clones”, “harvested and dispersed in 96-well microtiter plates.” for “isolated.”, “Then luciferase values were determined. In the Results section, data are expressed as fold stimulation of luciferase activity compared to the basal level. […]” for “(2003) and Willert et al. (2008).”

Primary CLL cells = assay: Cell apoptosis assay (DiOC6/PI flow cytometry) in primary CLL cells; assay type: cell-based, human; conditions: 3 μM EA; preliminary, data not shown

Compound `C=C(CC)C(=O)c1ccc(OCC(=O)O)c(Cl)c1Cl` [Compound 1, Ethacrynic acid] has an IC50 (HT29) of 56 µM, an IC50 (RAMOS) of 174 µM and an IC50 ([1]; Homo sapiens, HEK293, read-out: IC50 for inhibition of Wnt3A-induced transcription) of about 25 µM. The “effect on Wnt3a-induced transcription of the SuperTOPflash reporter” value ([1]; Wnt3a 10 nM, EA 20-35 μM, 18 hours) was “blocked Wnt3a-induced transcription in a dose-dependent manner”, the “effect on the FOPflash reporter” value (FOPflash reporter) was “no effect” and the “effect on fludarabine-mediated apoptosis of CLL cells” value (Primary CLL cells) was “enhanced”.
